This is an account of results in patent US8278359B2, “Compositions containing amines and use thereof to treat acne or reduce the appearance of oil or pores on the skin” (Johnson & Johnson Consumer Companies, Inc., priority 2005, dated 2012).

Where two headings read alike, the source gives them in different places.

The test system of one assay is B16 cells. Kind of assay: Induction of pigmentation in vitro, DOPA staining. The class given is cell-based, murine. To be noted: 10 ug/ml, 48 hours. The procedure: THPED was tested for its effect on pigmentation, using melanocytes, DOPA staining and computerized image analysis. THPED was obtained from BASF (Florham Park, N.J.). THPED was dissolved in culture medium and pH was adjusted to neutral (pH 7.2). THPED was assayed at concentrations ranging from 0.05-0.01%.
B16 cells (a murine melanoma cell line) were obtained from American Type Culture Collection (Manassas, Va.). Cells were cultured in Dulbecco's Modified Eagle Medium (DMEM) containing 10% fetal bovine serum (FBS), 4.5 mg/ml glucose, 2 mM L-glutamine, sodium pyruvate, without phenol red (Invitrogen, Carlsbad, Calif.). B16 cells were plated on 12 well tissue culture plates (Corning Costar, San Diego, Calif.), at 40,000 cells per well in the above culture media. Cells were allowed to grow overnight and then treated with various concentrations of THPED at pH 7.2 for total 48 hours. Fresh media containing the experimental treatments were changed once daily.
At the end of the treatment, the cells were washed for 5 minutes, twice, in phosphate-buffered saline (PBS, from Life Technologies, Gaithersburg, Md.), then briefly fixed in 10% buffered formalin (from Sigma St. Louis, Mo.) for 10 minutes, washed three times with PBS and stained with 0.1% L-3,4-Dihydroxyphenylalanine (DOPA, from Sigma, St. Louis, Mo.) in PBS for 2-3 hours at 37° C., followed by three PBS washes. DOPA is a substrate for tyrosinase; therefore an increase in staining represents increased tyrosinase activity and pigment production. Images of DOPA-stained cells were taken using a Leica DMIL microscope (Bannockburn, Ill.) and an OPTRONICS DEI-750 digital camera (Goleta, Calif.). All images were obtained and analyzed with Image Pro Plus 4.0 software (Media Cybernetics, Silver Spring, Md.).
The pigment change was evaluated using the scale defined in Table XII.

For assay [1], the system named is tyrosinase. Kind of assay: Tyrosinase activity in lysates of treated B16 cells (DOPA, absorbance 490 nm). It is filed as cell-based, murine. The following applies: 10 μg/ml; B16 cells 48 hours; activity at 3-hours, normalized for total protein. Here is the method: THPED was also tested for its ability to induce tyrosinase activity in B16 cells by spectroscopic measuring of the final product, melanin. B16 cells were treated with THPED at different concentrations at pH 7.2 for 48 hours and cells were then lysed in 250 μl of PBS containing 1% Triton X-100 (Sigma, St. Louis, Mo.). The lysates were collected and centrifuged at 14,000 rpm for 5 minutes at 4° C. to pellet any insoluble material. Lysates (100 μl) were transferred to a 96 well assay plate (Corning Costar, San Diego, Calif.) and mixed with 100 μl of 0.1% (w/v) DOPA in PBS. The absorbance at 490 nm was then monitored from 0 to 12 hours using a VersaMax Plate Spectrophotometer (Molecular Devices, Sunnyvale, Calif.) and SoftMax Pro analytical software (Molecular Devices, Sunnyvale, Calif.). The tyrosinase activities were normalized for total protein using the BioRad Dc Protein Assay (Bio Rad, Hercules, Calif.).

For assay [2], the system named is tyrosinase. Kind of assay: Tyrosinase protein levels in B16 cells (Western blot, normalized to β-Actin). It is filed as cell-based, murine. The following applies: 20 μg/ml, PBS treated control = 1. The procedure:
THPED was also tested for its ability to induce tyrosinase protein levels in B16 cells. B16 cells were treated with THPED at different concentrations at pH 7.2 for 48 hours and cells were then lysed in 250 μl of PBS containing 1% Triton X-100. B16 cell lysates containing 3.7 μg of protein (for tyrosinase protein analysis) and 1.2 μg of protein (for β-Actin protein analysis) were electrophoresed on 4-20% Tris-Glycine SDS PAGE minigels (Invitrogen, Carlsbad, Calif.), transferred onto PVDF membrane (Bio Rad, Hercules, Calif.), and probed with antibodies for Tyrosinase (1:200 in PBS+0.2% Tween 20+5% BSA, obtained from Santa Cruz Biotechnology, Inc., Santa Cruz, Calif.) and β-Actin (1:2000 in PBS+0.2% Tween 20+5% BSA, obtained from Sigma, St. Louis, Mo.). Protein expression of tyrosinase and β-Actin were analyzed using ECL reagent and Hyperfilm ECL obtained from Amersham (Piscataway, N.J.). The film was developed using a Konica SRX-101A Processor (East Orange, N.J.).
Tyrosinase protein level in untreated B16 cells was normalized to 1.

Assay [3] relates to GM-CSF (granulocyte macrophage stimulating factor). The experiment in a line: PHA-stimulated peripheral blood lymphocyte cytokine release: GM-CSF. The class given is cell-based. The following applies: Homo sapiens, read-out: GMCSF % inh. An excerpt:
(§1) The ability of various amines to affect the inflammatory responses was illustrated by its ability to reduce the production of cytokines by human lymphocytes stimulated with the T-cell receptor (TCR) activating agent phytohaemagglutinin (PHA) in the following assay.
(§2) Human leukocytes were collected from a healthy adult […] via leukopheresis, and adjusted to a density Of 1×10^6 cells/mL in serum free lymphocyte growth medium (ExVivo-15, Biowhittaker, Walkersville, Md.). PBLs were stimulated with 10 μg/mL PHA in the presence or absence of test samples following published methods (Hamamoto Y., et al. Exp Dermatol 2:231-235, 1993). The following compounds were evaluated N,N,N′,N′-Tetrakis(2-hydroxypropyl)ethylenediamine (THPED, available from BASF under the tradename “Quadrol” or “Neutrol”), N,N,N,N-Tetramethylethylenediamine (TEMED, available from Pfaltz & Bauer Chemicals (Waterbury, Conn.)), and Diethylenetriamine (available from Sigma-Aldrich) Following a 48 hour incubation at 37° C. with 5% CO2, the supernatant was removed and evaluated for cytokine content using commercially available multiplex cytokine detection kit.

Assay [4] relates to TNF (tissue necrosis factor-alpha). Kind of assay: PHA-stimulated peripheral blood lymphocyte cytokine release: TNF. The class given is cell-based. The following applies: Homo sapiens, read-out: TNF % inh.
From the text: as §1, §2

Another assay deals with IFN (interferon-gamma). The experiment in a line: PHA-stimulated peripheral blood lymphocyte cytokine release: IFN. The class given is cell-based. To be noted: Homo sapiens, read-out: IFN % inh.
From the text: as §1, §2

The test system of the next assay is IL-2 (Interleukin-2). The experiment in a line: PHA-stimulated peripheral blood lymphocyte cytokine release: IL-2. The following applies: Homo sapiens, read-out: IL-2 % inh. It is filed as cell-based.
From the text: as §1, §2

[5] abbreviates: 10 μg/ml, 10 μg/mL PHA, 48 hour incubation.
Where [6] appears, read: 100 μg/ml, 10 μg/mL PHA, 48 hour incubation.

In the assay with B16 cells, `C=C[C@@]1(C)CC(=O)[C@]2(O)[C@@]3(C)[C@@H](O)CCC(C)(C)[C@@H]3[C@H](O)[C@H](OC(C)=O)[C@@]2(C)O1` [Forskolin, forskolin, reference compound] returned a Pigmentation score of 3. Further, in the assay with tyrosinase [1], the “% tyrosinase activity relative to untreated control” value amounted to 202.35%. Also, the “Relative increase in tyrosinase protein” value in the assay on tyrosinase [2] turned out to be 34 fold.

Take `NCCNCCN` [Diethylenetriamine]: the inhibition at 10 µg/mL in assay [3] (setting [5]) was 36.6%; in assay [4] (setting [5]) it was 9.9%; with IFN (interferon-gamma) (setting [5]) it was -1.2%; with IL-2 (Interleukin-2) (setting [5]), 4.7%. The inhibition at 100 µg/mL in assay [3] (setting [6]) is 51.7%; in assay [4] (setting [6]), 3.3%; with IFN (interferon-gamma) (setting [6]), -35%; in the assay on IL-2 (Interleukin-2) (setting [6]), -19.5%.

For `CN(C)CCN(C)C` [TEMED, N, N, N′, N′-tetramethylethylene diamine], the inhibition at 10 µg/mL was determined as 47.4% in assay [3] (48 h), 33.6% in assay [4] (48 h), 36.9% in the assay with IFN (interferon-gamma) (48 h) and 6.6% in the assay on IL-2 (Interleukin-2) (48 h). The inhibition at 100 µg/mL in assay [3] (48 h) worked out at 53.1%; in assay [4] (48 h), 41.8%; with IFN (interferon-gamma) (48 h), 58.6%; with IL-2 (Interleukin-2) (48 h) it was 42.9%.

In the case of `CC(C)NCCN(CCNC(C)C)CCNC(C)C` [Tris[2-(isopropylamino)ethyl]amine, reference compound], the inhibition at 10 µg/mL in assay [3] (setting [5]) is -26.4%; in assay [4] (setting [5]), -10.7%; in the assay on IFN (interferon-gamma) (setting [5]) it was 20.3%; in the assay with IL-2 (Interleukin-2) (setting [5]), -7.7%. The inhibition at 100 µg/mL in assay [3] (setting [6]) was -52.8%; in assay [4] (setting [6]) it was -15.3%; in the assay with IFN (interferon-gamma) (setting [6]) it was 12.5%; with IL-2 (Interleukin-2) (setting [6]) it was 2.3%.

On to `OCCN(CCO)CCN(CCO)CCO` [THEED, N, N, N′, N′-Tetrakis(2-hydroxyethyl)ethylene diamine], for which the inhibition at 10 µg/mL in assay [3] (48 h) is 16.6%; in assay [4] (48 h), 35.8%; in the assay with IFN (interferon-gamma) (48 h) it was 23.7%; in the assay with IL-2 (Interleukin-2) (48 h) it was 27.7%. Also, the inhibition at 100 µg/mL is 23% in assay [3] (48 h), 44.5% in assay [4] (48 h), 49.5% in the assay with IFN (interferon-gamma) (48 h) and 61.8% in the assay on IL-2 (Interleukin-2) (48 h).
